From patent US12240862B2, “Inhibitors of peptidylarginine deiminases” (Gilead Sciences, Inc., priority 2020, dated 2025) come the findings set out here.

In general, IC50 refers to the concentration that gives 50% inhibition.

Molecules are shown by their SMILES.

T1 sequence (Q9UM07 2-663): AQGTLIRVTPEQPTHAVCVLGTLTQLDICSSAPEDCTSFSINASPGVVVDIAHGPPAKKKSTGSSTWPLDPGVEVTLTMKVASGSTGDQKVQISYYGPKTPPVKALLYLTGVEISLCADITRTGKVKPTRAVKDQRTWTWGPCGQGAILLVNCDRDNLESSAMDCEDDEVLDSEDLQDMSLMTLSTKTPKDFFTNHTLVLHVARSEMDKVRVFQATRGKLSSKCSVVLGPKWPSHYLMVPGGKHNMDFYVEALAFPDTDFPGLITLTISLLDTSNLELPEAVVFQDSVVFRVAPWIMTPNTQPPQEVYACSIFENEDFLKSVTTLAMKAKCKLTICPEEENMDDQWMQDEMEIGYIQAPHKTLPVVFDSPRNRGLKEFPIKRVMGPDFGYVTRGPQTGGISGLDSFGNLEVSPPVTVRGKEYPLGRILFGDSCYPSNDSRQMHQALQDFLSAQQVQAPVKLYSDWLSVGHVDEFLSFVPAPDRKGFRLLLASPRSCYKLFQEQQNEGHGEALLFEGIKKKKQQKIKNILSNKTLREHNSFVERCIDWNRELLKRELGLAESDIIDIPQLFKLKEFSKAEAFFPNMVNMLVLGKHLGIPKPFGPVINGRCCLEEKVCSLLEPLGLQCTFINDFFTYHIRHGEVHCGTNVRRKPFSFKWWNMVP

The assay concerns the target T1, human PAD4 (Homo sapiens, UniProt Q9UM07).
T1 construct: human PAD4 (NM_012387), A2P663, was PCR amplified; His-SUMO (N, cleaved yes); made in house; host or cells: E. coli BL21(DE3)
The assay can be described thus: In vitro PAD4 BAEE biochemical assay. The note with it: human PAD4, BAEE substrate; 5 nM PAD4, 2 mM calcium chloride, 3 mM BAEE; geometric mean of multiple experiments. An outline of the steps: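 Ammonia release from BAEE deimination monitored by o-phthalaldehyde amine coupling (1 h, 25 °C) after EDTA stop. Final conditions: 5 nM tag-free recombinant human PAD4 (E. coli), 2 mM CaCl2, 3 mM BAEE, pH 7.6 MOPS with DTT; 30 min compound preincubation, then 2 h reaction at 25 °C.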
Regarding `COc1cc(C(=O)N2[C@H]3CC[C@@H]2[C@H](N)C3)cc2nc(-c3cc4ccc([C@@H](C)NC(=O)N5CC(OC(F)F)C5)nc4n3CC3CC3)c(C)n12` [Example 205, ~{N}-[(1~{R})-1-[2-[7-[(1~{R},2~{R},4~{S})-2-amino-7-azabicyclo[2.2.1]heptane-7-carbonyl]-5-methoxy-3-methylimidazo [1,2-a]pyridin-2-yl]-1-(cyclopropylmethyl)pyrrolo [2,3-b]pyridin-6-yl]ethyl]-3-(difluoromethoxy)azetidine-1-carboxamide], the IC50 was 34.8 nM.

Regarding `COc1cc(C(=O)N2[C@H]3CC[C@@H]2[C@H](N)C3)cc2nc(-c3cc4ccc(C(CC(=O)N5CCCC5)C5CC5)nc4n3CC3CC3)c(C)n12` (stereo partly shown) [Example 542, 3-[2-[7-[(1~{R},2~{R}, 4~{S})-2-amino-7-azabicyclo[2.2.1]heptane-7-carbonyl]-5-methoxy-3-methylimidazo[1,2-a]pyridin-2-yl]-1-(cyclopropylmethyl)pyrrolo[2,3-b]pyridin-6-yl]-3-cyclopropyl-1-pyrrolidin-1-ylpropan-1-one], the IC50 worked out at 119 nM.

`COc1cc(C(=O)N2[C@H]3CC[C@@H]2[C@H](N)C3)cc2nc(-c3cc4ccc(C(C)CC#N)nc4n3CC3CC3)c(C)n12` (stereo partly shown) [Example 557, 3-[2-[7-[(1~{R},2~{R}, 4~{S})-2-amino-7-azabicyclo[2.2.1]heptane-7-carbonyl]-5-methoxy-3-methylimidazo[1,2-a]pyridin-2-yl]-1-(cyclopropylmethyl)pyrrolo [2,3-b]pyridin-6-yl] butanenitrile]: the IC50 was 77.7 nM.

Regarding `COc1cc(C(=O)N2[C@H]3CC[C@@H]2[C@H](N)C3)cc2nc(-c3cc4ccc([C@@H](C)NC(=O)c5ccnc(C(F)F)c5)nc4n3CC3CC3)c(C)n12` [Example 50, ~{N}-[(1~{R})-1-[2-[7-[(1~{R},2~{R},4~{S})-2-amino-7-azabicyclo[2.2.1]heptane-7-carbonyl]-5-methoxy-3-methylimidazo [1,2-a]pyridin-2-yl]-1-(cyclopropylmethyl)pyrrolo[2,3-b]pyridin-6-yl]ethyl]-2-(difluoromethyl)pyridine-4-carboxamide], the IC50 came to 30.6 nM.

As to `COc1cc(C(=O)N2[C@@H]3CC[C@@H](N)[C@H]2CC3)cc2nc(-c3cc4ccc(N(C(F)F)S(C)(=O)=O)nc4n3CC3CC3)c(C)n12` [Example 410, ~{N}-[2-[7-[(1~{R},2~{R}, 5~{R})-2-amino-8-azabicyclo[3.2.1]octane-8-carbonyl]-5-methoxy-3-methylimidazo[1,2-a]pyridin-2-yl]-1-(cyclopropylmethyl)pyrrolo [2,3-b]pyridin-6-yl]-~{N}-(difluoromethyl) methanesulfonamide], the IC50 is 233 nM.

Turning to `COc1cc(C(=O)N2CCC[C@@H](N)C2)cc2nc(-c3cc4ccc(-c5cccc6c5CNC6=O)nc4n3CC3CC3)c(C)n12` [Example 602, 4-[2-[7-[(3~{R})-3-aminopiperidine-1-carbonyl]-5-methoxy-3-methylimidazo[1,2-a]pyridin-2-yl]-1-(cyclopropylmethyl)pyrrolo[2,3-b]pyridin-6-yl]-2,3-dihydroisoindol-1-one], the IC50 was 2150 nM.

On to `CSc1cc(C(=O)N2CCC[C@@H](N)C2)cc2nc(-c3cc4ccc(N(C(F)F)S(C)(=O)=O)nc4n3CC3CC3)c(C)n12` [Example 387, ~{N}-[2-[7-[(3~{R})-3-aminopiperidine-1-carbonyl]-3-methyl-5-methylsulfanylimidazo[1,2-a]pyridin-2-yl]-1-(cyclopropylmethyl)pyrrolo [2,3-b]pyridin-6-yl]-~{N}-(difluoromethyl) methanesulfonamide], for which the IC50 was found to be 779 nM.

As for `CCc1ccc2cc(-c3nc4cc(C(=O)N5[C@H]6CC[C@@H]5[C@H](N)C6)cc(OC)n4c3C)n(Cc3cccnc3)c2n1` [Example 513, [(1~{R},2~{R},4~{S})-2-amino-7-azabicyclo [2.2.1]heptan-7-yl]-[2-[6-ethyl-1-(pyridin-3-ylmethyl)pyrrolo [2,3-b]pyridin-2-yl]-5-methoxy-3-methylimidazo[1,2-a]pyridin-7-yl]methanone], the IC50 worked out at 179 nM.

For the compound `COc1cc(C(=O)N2CCC[C@@H](N)C2)cc2nc(-c3cc4ccc([C@@H](C)NS(C)(=O)=O)nc4n3CC3CC3)c(C)n12` [Example 268, ~{N}-[(1~{R})-1-[2-[7-[(3~{R})-3-aminopiperidine-1-carbonyl]-5-methoxy-3-methylimidazo [1,2-a]pyridin-2-yl]-1-(cyclopropylmethyl)pyrrolo [2,3-b]pyridin-6-yl]ethyl]methanesulfonamide], the IC50 came to 257 nM.

For the compound `COc1cc(C(=O)N2[C@H]3CC[C@@H]2[C@H](N)C3)cc2nc(-c3cc4ccc([C@@H](C)NC(=O)N5CCC(F)(F)C5)nc4n3CC3CC3)c(C)n12` [Example 243, ~{N}-[(1~{R})-1-[2-[7-[(1~{R},2~{R},4~{S})-2-amino-7-azabicyclo[2.2.1]heptane-7-carbonyl]-5-methoxy-3-methylimidazo [1,2-a]pyridin-2-yl]-1-(cyclopropylmethyl)pyrrolo [2,3-b]pyridin-6-yl]ethyl]-3,3-difluoropyrrolidine-1-carboxamide], the IC50 turned out to be 80.7 nM.

For `COc1cc(C(=O)N2[C@H]3CC[C@@H]2[C@H](N)C3)cc2nc(-c3cc4ccc([C@@H](C)N5CCOC5=O)nc4n3CC3CC3)c(C)n12` [Example 275, 3-((R)-1-(2-(7-((1R,2R,4S)-2-amino-7-azabicyclo[2.2.1]heptane-7-carbonyl)-5-methoxy-3-methylimidazo[1,2-a]pyridin-2-yl)-1-(cyclopropylmethyl)-1H-pyrrolo[2,3-b]pyridin-6-yl)ethyl)oxazolidin-2-one], the IC50 came to 14.1 nM.

Consider `COc1cc(C(=O)N2CCC[C@@H](N)C2)cc2nc(-c3cc4ccc(C(NC(C)=O)C(C)C)nc4n3CC3CC3)c(C)n12` (stereo partly shown) [Example 195, ~{N}-[1-[2-[7-[(3~{R})-3-aminopiperidine-1-carbonyl]-5-methoxy-3-methylimidazo [1,2-a]pyridin-2-yl]-1-(cyclopropylmethyl)pyrrolo [2,3-b]pyridin-6-yl]-2-methylpropyl]acetamide], for which the IC50 was determined as 519 nM.

As for `COc1cc(C(=O)NC[C@@H]2CCCCN2)cc2nc(-c3cc4ccc(N(C(F)F)S(C)(=O)=O)nc4n3CC3CC3)c(C)n12` [Example 294, 2-[1-(cyclopropylmethyl)-6-[difluoromethyl (methylsulfonyl)amino]pyrrolo[2,3-b]pyridin-2-yl]-5-methoxy-3-methyl-~ {N}-[[(2~{S})-piperidin-2-yl]methyl]imidazo[1,2-a]pyridine-7-carboxamide], the IC50 is 38400 nM.

`COc1cc(C(=O)N2[C@H]3CC[C@@H]2[C@H](N)C3)cc2nc(-c3cc4ccc([C@@H](C)NC(=O)c5cc(C)nc(Cl)c5)nc4n3CC3CC3)c(C)n12` [Example 46, ~{N}-[(1~{R})-1-[2-[7-[(1~{R},2~{R},4~{S})-2-amino-7-azabicyclo[2.2.1]heptane-7-carbonyl]-5-methoxy-3-methylimidazo [1,2-a]pyridin-2-yl]-1-(cyclopropylmethyl)pyrrolo[2,3-b]pyridin-6-yl]ethyl]-2-chloro-6-methylpyridine-4-carboxamide]: the IC50 was 33.4 nM.

Take `COc1cc(C(=O)N2[C@H]3CC[C@@H]2[C@H](N)C3)cc2nc(-c3cc4ccc(C(NC(=O)C(C)(C)C)C(F)(F)F)nc4n3CC3CC3)c(C)n12` (stereo partly shown) [Example 192, ~{N}-[1-[2-[7-[(1~{R},2~{R},4~{S})-2-amino-7-azabicyclo[2.2.1]heptane-7-carbonyl]-5-methoxy-3-methylimidazo [1,2-a]pyridin-2-yl]-1-(cyclopropylmethyl)pyrrolo [2,3-b]pyridin-6-yl]-2,2,2-trifluoroethyl]-2,2-dimethylpropanamide]: the IC50 was 689 nM.

As for `COc1cc(C(=O)N2[C@H]3CC[C@@H]2[C@H](N)C3)cc2nc(-c3cc4ccc(N5CCOCS5(=O)=O)nc4n3CC3CC3)c(C)n12` [Example 458, [(1~{R},2~{R},4~{S})-2-amino-7-azabicyclo [2.2.1]heptan-7-yl]-[2-[1-(cyclopropylmethyl)-6-(3,3-dioxo-1,3,4-oxathiazinan-4-yl)pyrrolo [2,3-b]pyridin-2-yl]-5-methoxy-3-methylimidazo[1,2-a]pyridin-7-yl]methanone], the IC50 came out at 52.3 nM.

On to `COc1cc(C(=O)N2[C@H]3CC[C@@H]2[C@H](N)C3)cc2nc(-c3cc4ccc([C@@H](C)NC(=O)N5C[C@@H](F)[C@@H](F)C5)nc4n3CC3CC3)c(C)n12` [Example 245, (3~{R},4~{S})-~{N}-[(1~{R})-1-[2-[7-[(1~{R},2~{R},4~{S})-2-amino-7-azabicyclo [2.2.1]heptane-7-carbonyl]-5-methoxy-3-methylimidazo [1,2-a]pyridin-2-yl]-1-(cyclopropylmethyl)pyrrolo [2,3-b]pyridin-6-yl]ethyl]-3,4-difluoropyrrolidine-1-carboxamide], for which the IC50 turned out to be 62.2 nM.

As for `CCc1ccc2cc(-c3nc4cc(C(=O)N5[C@H]6CC[C@@H]5[C@H](N)C6)cc(OC)n4c3C)n(CCCO)c2n1` [Example 499, [(1~{R},2~{R},4~{S})-2-amino-7-azabicyclo [2.2.1]heptan-7-yl]-[2-[6-ethyl-1-(3-hydroxypropyl)pyrrolo[2,3-b]pyridin-2-yl]-5-methoxy-3-methylimidazo[1,2-a]pyridin-7-yl]methanone], the IC50 came out at 481 nM.

On to `COc1cc(C(=O)N2[C@H]3CC[C@@H]2[C@H](N)C3)cc2nc(-c3cc4ccc([C@@H](C)Nc5ccccn5)nc4n3CC3CC3)c(C)n12` [Example 261, [(1~{R},2~{R},4~{S})-2-amino-7-azabicyclo [2.2.1]heptan-7-yl]-[2-[1-(cyclopropylmethyl)-6-[(1~{R})-1-(pyridin-2-ylamino)ethyl]pyrrolo[2,3-b]pyridin-2-yl]-5-methoxy-3-methylimidazo[1,2-a]pyridin-7-yl]methanone], for which the IC50 is 144 nM.
